Some test systems named below: NCI/ADR-RES ovarian; HCC-2998 colon; SNB-19 CNS; HS 578T breast; DU-145 prostate; MDA-MB-231 breast; SNB-75 CNS; HCT-116 colon; UACC-62 melanoma; OVCAR-4 ovarian; HOP-62 NSCLC.
Experiment in all cases: NCI anticancer screen, dose series, 48 h

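Briefly, cells in 96-well plates were exposed to five compound concentrations for 48 h, and endpoints were estimated by linear interpolation. GI50 is the concentration that inhibits growth by half. The concentration for full growth arrest is given as TGI.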

As to `C1=C(c2ccccc2)C(N2CCOCC2)Oc2ccccc21` (centres undefined), the TGI in the test with NCI/ADR-RES ovarian, in the test on HCC-2998 colon, in the test with SNB-19 CNS, with HS 578T breast, in the test on DU-145 prostate and with MDA-MB-231 breast was above 100 µM each time. Also, the TGI in the test on SNB-75 CNS, in the test on HCT-116 colon, in the test on UACC-62 melanoma, with OVCAR-4 ovarian and in the test with HOP-62 NSCLC was above 100 µM in each case.

Consider `CCn1c(=O)c2nc(SC)sc2n(-c2ccc(C)cc2)c1=O`, for which the TGI is above 100 µM in the test with NCI/ADR-RES ovarian; above 100 µM in the test on HCC-2998 colon; above 100 µM in the test on SNB-19 CNS; above 87.4 µM with HS 578T breast; above 100 µM in the test with DU-145 prostate; above 100 µM in the test with MDA-MB-231 breast. Further, the TGI was above 95.1 µM with SNB-75 CNS; above 100 µM in the test on HCT-116 colon; above 100 µM in the test on UACC-62 melanoma; above 100 µM in the test with OVCAR-4 ovarian; above 100 µM in the test on HOP-62 NSCLC. The GI50 in the test on UACC-62 melanoma is 41.2 µM.

`COC(=O)c1ccccc1C1CN=NC12Cc1c(ccc3c1CCC3)C2=O` (centres undefined): the TGI in the test with NCI/ADR-RES ovarian, with HCC-2998 colon, with SNB-19 CNS, with HS 578T breast, with DU-145 prostate and in the test with MDA-MB-231 breast was above 100 µM throughout. Besides, the TGI in the test on SNB-75 CNS, in the test with HCT-116 colon, in the test with UACC-62 melanoma, with OVCAR-4 ovarian and in the test with HOP-62 NSCLC was above 100 µM throughout.

Consider `Cc1cccc2c(N)c3cccc(C(=O)NCC[N+](C)(C)Cc4ccc([N+](=O)[O-])s4)c3nc12`, for which the TGI in the test with NCI/ADR-RES ovarian was above 100 µM; in the test on HCC-2998 colon, 25.2 µM; in the test with SNB-19 CNS it was 60.2 µM; in the test on HS 578T breast, 34.6 µM; in the test on DU-145 prostate, 46.8 µM; in the test on MDA-MB-231 breast, 21.3 µM. For the same molecule, the TGI is 43.8 µM with SNB-75 CNS; above 100 µM in the test on HCT-116 colon; above 49.1 µM with UACC-62 melanoma; 25.1 µM with OVCAR-4 ovarian; 32.5 µM with HOP-62 NSCLC.

As for `C=C(C(=O)O[C@H]1C/C(C)=C/CC/C(CO)=C/[C@H]2C(=O)OC(=C)[C@H]12)C(O)CO` (some centres undefined), the TGI in the test on NCI/ADR-RES ovarian turned out to be 48.4 µM; in the test on HCC-2998 colon, 30.1 µM; in the test on SNB-19 CNS it was 43.3 µM; in the test with HS 578T breast, 57.9 µM; in the test on DU-145 prostate, 33.4 µM; in the test on MDA-MB-231 breast, 33.3 µM. In addition, the TGI in the test with SNB-75 CNS is 34.9 µM; in the test on HCT-116 colon it was 19.6 µM; with UACC-62 melanoma, 31.5 µM; in the test on OVCAR-4 ovarian it was 46.9 µM; with HOP-62 NSCLC, above 59.9 µM.

Consider `CCCCc1ccc(Nc2ncc3ncn(COCCO)c3n2)cc1`, for which the TGI in the test on NCI/ADR-RES ovarian is above 100 µM; in the test with HCC-2998 colon, 40.7 µM; in the test with SNB-19 CNS, above 100 µM; in the test on HS 578T breast it was 83.7 µM; in the test with DU-145 prostate it was above 100 µM; with MDA-MB-231 breast, 57.4 µM. Also, the TGI is 65.3 µM in the test on SNB-75 CNS; 65.4 µM with HCT-116 colon; 77.7 µM with UACC-62 melanoma; above 100 µM in the test on OVCAR-4 ovarian; above 100 µM in the test on HOP-62 NSCLC.

On to `CSC(=S)Nc1cc(C)cc(C)n1`, for which the TGI was above 31.6 µM in the test on NCI/ADR-RES ovarian; above 31.6 µM in the test on HCC-2998 colon; above 31.6 µM in the test on SNB-19 CNS; above 31.6 µM with HS 578T breast; above 31.6 µM in the test with DU-145 prostate; above 100 µM in the test with MDA-MB-231 breast. Besides, the TGI is above 10 µM in the test with SNB-75 CNS; above 10 µM with HCT-116 colon; above 31.6 µM in the test on UACC-62 melanoma; above 31.6 µM in the test with OVCAR-4 ovarian; above 100 µM with HOP-62 NSCLC.

On to `COc1cc2ccc(C(=O)NCCCNC(=O)c3ccc4cc(OC)c(OC)cc4c3)cc2cc1OC`, for which the TGI with NCI/ADR-RES ovarian, with HCC-2998 colon, with SNB-19 CNS, with HS 578T breast, in the test on DU-145 prostate and in the test on MDA-MB-231 breast was above 100 µM throughout. Further, the TGI in the test with SNB-75 CNS is 95.8 µM; in the test on HCT-116 colon, above 100 µM; in the test with UACC-62 melanoma, above 100 µM; with OVCAR-4 ovarian it was above 100 µM; with HOP-62 NSCLC, above 100 µM.

For the molecule `O=C1NC(=O)c2ccccc2/C1=C/c1ccc2c(c1)OCO2`, the TGI with NCI/ADR-RES ovarian is 69.2 µM; in the test on HCC-2998 colon, 38.9 µM; in the test with SNB-19 CNS, above 100 µM; in the test on HS 578T breast it was 47.2 µM; in the test on DU-145 prostate, above 100 µM; in the test with MDA-MB-231 breast, 47.5 µM. Also, the TGI is 86.6 µM in the test with SNB-75 CNS; 22.5 µM in the test on HCT-116 colon; 54.3 µM in the test on UACC-62 melanoma; above 100 µM with OVCAR-4 ovarian; 28.7 µM in the test on HOP-62 NSCLC.

As for `CCCC[C@@H](C)/C=C1\CN2CCC[C@H]2[C@@](C)(OCc2ccccc2)[C@@H]1O`, the TGI in the test with NCI/ADR-RES ovarian was above 50 µM; in the test with HCC-2998 colon, above 50 µM; with SNB-19 CNS, above 50 µM; with HS 578T breast, above 50 µM; in the test on DU-145 prostate, above 19.3 µM; in the test on MDA-MB-231 breast, above 50 µM. In addition, the TGI in the test on SNB-75 CNS was above 50 µM; with HCT-116 colon, above 50 µM; in the test with UACC-62 melanoma, above 50 µM; in the test with OVCAR-4 ovarian it was above 50 µM; in the test on HOP-62 NSCLC it was 18.4 µM.

For the molecule `CCN1C/C(=C\c2ccc(Cl)cc2)c2nc(N)c(C#N)c(-c3ccc(Cl)cc3)c2C1`, the TGI in the test with NCI/ADR-RES ovarian, with HCC-2998 colon, with SNB-19 CNS, in the test on HS 578T breast, in the test with DU-145 prostate and with MDA-MB-231 breast was above 100 µM in each case. In addition, the TGI with SNB-75 CNS, with HCT-116 colon, in the test with UACC-62 melanoma, with OVCAR-4 ovarian and in the test with HOP-62 NSCLC was above 100 µM in each case.

Turning to `O=C1COc2cc(N3CCN(c4cccc(C(F)(F)F)c4)CC3)ccc2N1`, the TGI in the test on NCI/ADR-RES ovarian, in the test with HCC-2998 colon, in the test on SNB-19 CNS, with HS 578T breast, in the test on DU-145 prostate and in the test with MDA-MB-231 breast was above 100 µM in each case. The TGI in the test on SNB-75 CNS, with HCT-116 colon, with UACC-62 melanoma, in the test on OVCAR-4 ovarian and in the test on HOP-62 NSCLC was above 100 µM each time.

For `Cc1nc2cc(F)c(F)cc2[nH]c1=O`, the TGI in the test with NCI/ADR-RES ovarian, in the test with HCC-2998 colon, in the test with SNB-19 CNS, with HS 578T breast, with DU-145 prostate and in the test with MDA-MB-231 breast was above 100 µM in each case. Further, the TGI in the test on SNB-75 CNS, in the test on HCT-116 colon, in the test with UACC-62 melanoma, in the test with OVCAR-4 ovarian and in the test on HOP-62 NSCLC was above 100 µM each time.

Consider `Cc1cn(C2CCC(CO)(CF)O2)c(=O)[nH]c1=O` (centres undefined), for which the TGI in the test on NCI/ADR-RES ovarian, with HCC-2998 colon, with SNB-19 CNS, in the test with HS 578T breast, in the test with DU-145 prostate and in the test with MDA-MB-231 breast was above 100 µM in each case. In addition, the TGI in the test with SNB-75 CNS, in the test on HCT-116 colon, in the test on UACC-62 melanoma, in the test on OVCAR-4 ovarian and with HOP-62 NSCLC was above 100 µM each time.

Take `Cn1cnc(N)c(N=O)c1=O`: the TGI with NCI/ADR-RES ovarian, in the test with HCC-2998 colon, with SNB-19 CNS, in the test with HS 578T breast, with DU-145 prostate and in the test with MDA-MB-231 breast was above 10 µM throughout. Moreover, the TGI in the test on SNB-75 CNS, in the test with HCT-116 colon, in the test with UACC-62 melanoma, with OVCAR-4 ovarian and in the test with HOP-62 NSCLC was above 10 µM each time.

For `CC(=O)n1cc(C2CC23N=C(c2ccccc2)OC3=O)c2ccccc21` (centres undefined), the TGI was above 56 µM with NCI/ADR-RES ovarian; 30.8 µM in the test with HCC-2998 colon; above 89.7 µM with SNB-19 CNS; 68.6 µM with HS 578T breast; 33.2 µM in the test on DU-145 prostate; 46.4 µM with MDA-MB-231 breast. In addition, the TGI with SNB-75 CNS is 39.6 µM; in the test on HCT-116 colon it was 27.9 µM; in the test on UACC-62 melanoma, 31.7 µM; with OVCAR-4 ovarian, 42.4 µM; in the test with HOP-62 NSCLC, above 100 µM.

Regarding `COC(=O)C1=C(OC(=O)/C(=C/c2ccccc2)c2ccc(OC)cc2)C(C(=O)OC)[C@@]2(O)[C@@H](C(=O)OC)[C@H](C)C[C@@H]1[C@@H]2C(=O)OC` (some centres undefined), the TGI is above 100 µM with NCI/ADR-RES ovarian; above 100 µM in the test on HCC-2998 colon; above 100 µM in the test on SNB-19 CNS; 99.3 µM in the test on HS 578T breast; above 100 µM in the test with DU-145 prostate; 90.8 µM in the test on MDA-MB-231 breast. Also, the TGI with SNB-75 CNS, with HCT-116 colon, in the test with UACC-62 melanoma, in the test on OVCAR-4 ovarian and in the test with HOP-62 NSCLC was above 100 µM throughout.

Take `N#Cc1c(-c2ccc(Cl)cc2)cc(-c2ccc(Nc3ccnc4cc(Cl)ccc34)cc2)[nH]c1=O`: the TGI is above 100 µM in the test with NCI/ADR-RES ovarian; above 100 µM with HCC-2998 colon; above 96.7 µM with SNB-19 CNS; 62.4 µM with HS 578T breast; above 100 µM in the test with DU-145 prostate; above 67.4 µM in the test with MDA-MB-231 breast. Besides, the TGI with SNB-75 CNS was above 100 µM; with HCT-116 colon, above 100 µM; in the test with UACC-62 melanoma, above 100 µM; with OVCAR-4 ovarian it was above 100 µM; in the test on HOP-62 NSCLC, above 62.8 µM.
